Reference: patent US4048299A, “Anticaries confectionaries and oral health products” (William Wrigley, Jr. Co., priority 1970, dated 1977)

Legend:
[1] = system: Lactobacillus casei ATCC 4646; experiment: Growth inhibition by aldehydes in product vehicles, pour-plate technique; assay type: cell-based; details: in tooth powder (aqueous extract), 1 to 5 percent aldehyde
Experimental: (§1) Other in vitro evaluations utilized a broth tube analysis of representative anticaries aldehydes incorporated in the vehicles of this invention against cultures of acid producing microorganisms normally present in the mouth. Standard laboratory procedures were utilized throughout to evaluate the acid production inhibition and growth inhibition over the incubation time of up to 24 hours.
(§2) (b)Measured by pour-plate technique.
(§3) In formulating Tables XIII - XIX representative aldehydes having anticaries activity were selected from those tested as summarized in Tables I - XII and incorporated in seven representative types of products. The products included dextrose and sucrose syrups, obtained commercially in food grades, and compressed candy, hard candy, mouthwash, toothpaste and toothpowder. The five latter products also employed food grade and reagent grade ingredients. These products were formulated by well-known and representative recipes for each type of product. The products were formed in batches of approximately 1 pound or 1 liter and contained all their normal constitutents. Aliquots of each products were blended with one of each of the representative aldehydes selected except in the case of hard candy.
(§4) Aliquots of the aldehyde incorporating sugar syrups, confectioneries, and mouthwash formulations were added directly to assay flasks and mixed or dissolved as required. Aqueous extracts of the aldehyde incorporated in toothpaste and toothpowder were prepared and aliquots of the filtrate were added to the assay flasks.
(§5) The assay flasks contained the necessary components for a normal growth response from the organisms employed, Lactobacillus casei ATCC 4646, originally a human oral isolate, Streptococcus spp. K1-R, human caries isolate, and a mixed oral microbial population obtained fresh from saliva on the morning prior to the initiation of each assay incubation period. The assay flask medium was dissolved in distilled water in which was added an equal volume of filter sterilized human saliva to yield a 50 percent saliva-medium combination. The medium contained all normal ingredients such as yeast extract, proteose peptone number 3 (a proprietary formula of Difco Laboratories, Detroit, Michigan) monopotassium phosphate, Tween 80 (polyoxethylene sorbitan monoleate) and water, except a carbon source. This was supplied by the aliquot of the sucrose syrup, dextrose syrup, sucrose in the compressed candy tablet and sucrose in the hard candy product. In addition, an aliquot of sucrose solution concentrate was added to the assay flask as a carbon source for evaluation of mouthwash, toothpaste, and toothpowder vehicles.
(§6) The lower aldehydes such as glycolaldehyde, crystalline dimer; pyruvaldehyde, aqueous syrup; d,1-glyceraldehyde solution and crystalline dimer; and glutaraldehyde, employed as a 50 percent aqueous solution, are water soluble and were employed directly either as powders or aqueous solutions. The C8 to C12, longer chain aliphatic aldehydes, of which decyl and dodecyl (lauric) were selected as representative, are oil soluble and are prepared and added to the products as emulsions with four parts of Tween 20, polyoxethylene sorbitan monolaurate. The aldehyde concentrations in the products were randomly chosen between 1 to 5 percent by weight. Limits for the concentrations were selected to coincide with the data presented in Tables I - XII in order to verify that the anticaries activity of the aldehydes in the product vehicles tested was equivalent to the activity previously established for the aldehydes alone.

[2] = system: Mixed human oral microorganisms; experiment: as above; assay type: cell-based; details: in tooth powder (aqueous extract), 1 to 5 percent aldehyde
Experimental: as §1, §2, §3, §4, §5, §6

[3] = system: Streptococcus spp. KI-R; experiment: as above; assay type: cell-based; details: in tooth powder (aqueous extract), 1 to 5 percent aldehyde
Experimental: as §1, §2, §3, §4, §5, §6

[4] = system: Lactobacillus casei ATCC 4646; experiment: Acid production inhibition by aldehydes in product vehicles, broth-tube technique; assay type: cell-based; details: in tooth powder (aqueous extract), 1 to 5 percent aldehyde
Experimental: as §1
(§7) (a)Measured by broth-tube technique.
as §3, §4, §5, §6

[5] = system: Mixed human oral microorganisms; experiment: as above; assay type: cell-based; details: in tooth powder (aqueous extract), 1 to 5 percent aldehyde
Experimental: as §1, §7, §3, §4, §5, §6

[6] = system: Streptococcus spp. KI-R; experiment: as above; assay type: cell-based; details: in tooth powder (aqueous extract), 1 to 5 percent aldehyde
Experimental: as §1, §7, §3, §4, §5, §6

[7] = In vivo caries evaluation, Osborne-Mendel strain 2 rat; parameters: species or system rat (Osborne-Mendel strain 2); Caries Score, Mean Incidence / Caries Score, Mean Extent: scale not given here; details: for Caries Score, Mean Incidence / Caries Score, Mean Extent: 1 percent in diet; for Caries Extent Reduction, statistical evaluation / Caries Incidence Reduction, statistical evaluation: Student's test, 95 percent confidence limit
Source text: (§8) Standard laboratory techniques were used to complie the data presented. In each case the aldehyde was incorporated into each specimen's food in a one percent, by weight, quantity, over a period of several weeks. In all cases, caries reduction was noted.
(§9) The aldehydes tested in vivo were pyruvaldehyde, d,1-glyceraldehyde, crystalline dimer, glycolaldehyde, octanaldehyde, nonanaldehyde, decanaldehyde, undecylenic aldehyde, and lauric aldehyde. The polyaldehydes tested were dialdehyde starch, dialdehyde starch 50 percent oxidized, dialdehyde starch 90 percent oxidized, and dialdehyde galactomannan gum.
(§10) ^(a) Agents were incorporated in the diet at a 1 percent level.

[8] = system: L. casei; experiment: Growth inhibition of oral microorganisms in vitro, pour plates; assay type: cell-based, Lactobacillus casei; details: Table IX; for Bacterial Population, Experimental: control 8 × 10^8 to 1 × 10^9; for Inhibition (growth): pour plates incubated 48 - 72 hours
Experimental: (§11) (a)Determined on freshly grown pure cultures. Pour plates were incubated

[9] = system: Streptococcus spp. FA-1; experiment: as above; assay type: cell-based; details: Table IX; for Bacterial Population, Experimental: control 2 × 10^8 to 5 × 10^8; for Inhibition (growth): pour plates incubated 48 - 72 hours
Experimental: as §11

[10] = In vivo caries evaluation, laboratory animals (summary); details: one percent level in diet
Source text: as §8, §9

[11] = system: Lactobacillus casei and Streptococcus sp. FA-1; experiment: Acid-production inhibition by broth-tube assay, 0.1 percent of compound; assay type: cell-based; details: for inhibition at 0.1 %: Table X, 0.1 percent of compound, read-out: Activity, Acid-Production Inhibition%; for Activity, Acid-Production Inhibition, %: Table XII, 0.1% of compound
Experimental: ^(a) Activity was measured by broth-tube assay to determine percent
(§12) acid-production inhibition obtained by Lactobacillus casei and
Streptococcus sp. FA-1 in the presence of 0.1 percent of compound.
^(a) Activity was measured by broth-tube assay to determine percent o
as §12
Streptococcus sp. FA-1 in the presence of 0.1% of compound. Symbols

[12] = In vivo caries evaluation, Osborne-Mendel strain 1 rat; parameters: species or system rat (Osborne-Mendel strain 1); Caries Score, Mean Incidence / Caries Score, Mean Extent: scale not given here; details: Table II, 90 days
Source text: as §8, §9, §10

[13] = system: oral microorganisms; experiment: Acid production inhibition in vitro (summary); assay type: cell-based; details: in words, summary of tables
Experimental: as §1

[14] = system: oral microorganisms; experiment: Growth inhibition in vitro (summary); assay type: cell-based; details: in words, summary of tables
Experimental: as §1

[15] = Student's test, 95 percent confidence limit

With `CCCCCCCCCCCC=O` [Lauric aldehyde] the “Growth Inhibition” value ([1]; 2 h incubation) was 99.5 Per cent, the “Growth Inhibition” value ([1]; 5 h incubation) was greater than 99.99 Per cent and the “Growth Inhibition” value ([1]; 24 h incubation) was 99.99 Per cent. For the same molecule, the “Growth Inhibition” value ([2]; 2 h incubation) was 99.8 Per cent, the “Growth Inhibition” value ([2]; 5 h incubation) was 99.6 Per cent and the “Growth Inhibition” value ([2]; 24 h incubation) was “N.S”. For the same molecule, the “Growth Inhibition” value ([3]; 2 h incubation) was 99.2 Per cent, the “Growth Inhibition” value ([3]; 5 h incubation) was greater than 99.99 Per cent and the “Growth Inhibition” value ([3]; 24 h incubation) was 100 Per cent. For the same molecule, the “Acid Production Inhibition” value ([4]; 2 h incubation) was 0 Per cent, the “Acid Production Inhibition” value ([4]; 5 h incubation) was 0 Per cent and the “Acid Production Inhibition” value ([4]; 24 h incubation) was 93 Per cent. The “Acid Production Inhibition” value ([5]; 2 h incubation) was 33 Per cent, the “Acid Production Inhibition” value ([5]; 5 h incubation) was 96 Per cent and the “Acid Production Inhibition” value ([5]; 24 h incubation) was 0 Per cent. For the same molecule, the “Acid Production Inhibition” value ([6]; 2 h incubation) was 0 Per cent, the “Acid Production Inhibition” value ([6]; 5 h incubation) was 0 Per cent and the “Acid Production Inhibition” value ([6]; 24 h incubation) was 0 Per cent. For the same molecule, the “Caries Score, Mean Incidence” value ([7]; Table II, 90 days, L2000 control 17.4) was 10.0, the “Caries Score, Mean Extent” value ([7]; Table II, 90 days, L2000 control 31.3) was 15.6 and the “Caries Extent Reduction, statistical evaluation” value (“Caries Extent Reduction” for short) ([7]; Table II, 90 days) was “Significant”. For the same molecule, the “Caries Incidence Reduction, statistical evaluation” value (“Caries Incidence Reduction” below) ([7]; Table II, 90 days) was “Significant”, the “Bacterial Population, Experimental” value [8] was < 1 × 10^2 and the “Inhibition (growth)” value [8] was greater than 99.99%. The “Bacterial Population, Experimental” value [9] was 0, the “Inhibition (growth)” value [9] was 100% and the “Anticaries effect in laboratory animals” value [10] was “significant anticaries activity”. It also gave an inhibition at 0.1 % [11] of 99 to 100%.
In the case of `CCCCCCCCC=O` [Nonanaldehyde], the “Caries Score, Mean Incidence” value ([12]; 1 percent in diet, RCD control 19.0 (octan-), 14.1 (nonan-), 17.6 (decan-), 22.3 (undecylenic)) is reported as 5.1, the “Caries Score, Mean Extent” value ([12]; 1 percent in diet, RCD control 49.6 (octan-), 34.3 (nonan-), 46.0 (decan-), 54.6 (undecylenic)) is reported as 10.2 and the “Caries Extent Reduction” value [12, 15] is reported as “Significant”. The “Caries Incidence Reduction” value [12, 15] was “Significant”, the “Bacterial Population, Experimental” value [8] was 4 × 10^4 and the “Inhibition (growth)” value [8] was greater than 99.99%. The “Bacterial Population, Experimental” value [9] was 0, the “Inhibition (growth)” value [9] was 100% and the “Anticaries effect in laboratory animals” value [10] was “significant anticaries activity”. It also gave an inhibition at 0.1 % [11] of 99 to 100%.
In the case of `O=CC=O` [Glyoxal], the “Activity, Acid-Production Inhibition, %” value [11] is reported as “++++ (99 to 100)”.
In the case of `CCCCCCC=O` [n-Heptaldehyde], the Acid Production Inhibition [13] is reported as “excellent acid production inhibition”, the Growth Inhibition [14] is reported as “little or no growth inhibition” and the “Bacterial Population, Experimental” value [8] is reported as 1 × 10^9. The “Inhibition (growth)” value [8] was “None”, the “Bacterial Population, Experimental” value [9] was 3 × 10^8 and the “Inhibition (growth)” value [9] was “Insignificant”. The inhibition at 0.1 % [11] was 75 to 89%.
With `O=CC(=O)C=O` [Mesoxalic dialdehyde] the “Activity, Acid-Production Inhibition, %” value ([11]; confirmation of purity and structure lacking, actual activity could be much higher) was “+ (25 to 74)”.
With `OCC1OC(O)C(CO)OC1O` (stereo not shown) [Glyceraldehyde, crystalline dimer] the “Caries Score, Mean Incidence” value ([7]; Table I, 91 days, L-2000 control 23.5) was 15.0, the “Caries Score, Mean Extent” value ([7]; Table I, 91 days, L-2000 control 51.0) was 29.4 and the “Caries Extent Reduction” value ([7]; Table I, 91 days) was “Significant”. The “Caries Incidence Reduction” value ([7]; Table I, 91 days) was “Significant”.
With `O=CCCCC(O)C=O` (stereo not shown) [2-Hydroxyadipaldehyde] the “Activity, Acid-Production Inhibition, %” value [11] was “+ (25 to 74)”.
